Results published in patent publication US10335503B2, “Compound that specifically binds to AMPA receptor” (Public University Corporation Yokohama City University, priority 2015, dated 2019).

How the values were obtained:
α2A-Adrenergic = α2A-Adrenergic (Homo sapiens, UniProt P08913); experiment: Receptor binding panel: α2A-Adrenergic; conditions: K-2 at 1 × 10^−7 mol/L
CRF1 = molecular target: T1, CRF1 (Homo sapiens, UniProt P34998); experiment: Receptor binding panel: CRF1; conditions: K-2 at 1 × 10^−7 mol/L
T1 sequence (P34998 24-415): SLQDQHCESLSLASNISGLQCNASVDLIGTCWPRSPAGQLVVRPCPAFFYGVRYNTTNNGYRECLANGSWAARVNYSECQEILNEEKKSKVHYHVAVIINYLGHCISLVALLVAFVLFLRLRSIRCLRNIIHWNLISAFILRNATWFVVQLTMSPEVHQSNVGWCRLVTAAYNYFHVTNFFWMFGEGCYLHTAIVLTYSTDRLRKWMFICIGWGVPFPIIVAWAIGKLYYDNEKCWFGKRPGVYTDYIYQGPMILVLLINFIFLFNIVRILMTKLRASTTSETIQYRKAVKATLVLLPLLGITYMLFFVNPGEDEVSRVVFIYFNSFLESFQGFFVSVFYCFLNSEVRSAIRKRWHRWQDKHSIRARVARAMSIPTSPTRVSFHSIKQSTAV

Glutamate (Kainate) = experiment: Receptor binding panel: Glutamate (Kainate); conditions: K-2 at 1 × 10^−7 mol/L
K Channel KATP = experiment: Receptor binding panel: K Channel KATP; conditions: K-2 at 1 × 10^−7 mol/L
K Channel SKCa = experiment: Receptor binding panel: K Channel SKCa; conditions: K-2 at 1 × 10^−7 mol/L
Opiate μ = Opiate μ (Homo sapiens, UniProt P35372); experiment: Receptor binding panel: Opiate μ; conditions: K-2 at 1 × 10^−7 mol/L
Opiate μ, sequence (P35372 whole entry): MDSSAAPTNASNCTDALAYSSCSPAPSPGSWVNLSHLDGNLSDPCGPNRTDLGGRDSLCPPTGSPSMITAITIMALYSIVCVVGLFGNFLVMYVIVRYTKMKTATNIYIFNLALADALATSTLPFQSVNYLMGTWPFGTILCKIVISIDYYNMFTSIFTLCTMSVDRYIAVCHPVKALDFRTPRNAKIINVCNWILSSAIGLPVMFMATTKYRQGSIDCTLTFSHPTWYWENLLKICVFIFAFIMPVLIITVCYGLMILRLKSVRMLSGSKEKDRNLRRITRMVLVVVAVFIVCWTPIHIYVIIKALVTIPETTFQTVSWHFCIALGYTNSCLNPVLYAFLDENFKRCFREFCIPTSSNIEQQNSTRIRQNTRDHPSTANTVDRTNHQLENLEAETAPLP

AMPA receptor = experiment: Electrophysiological experiment: AMPA current by whole-cell recording in acute hippocampus section; format: cell-based, rat; conditions: 150 μM in ACSF for 15 minutes, CA1 pyramidal cell, ground state converted as 1
Method: In the LC-MS/MS experiment, all of the synthesized compounds were dissolved in 100% DMSO so as to have a concentration of 2.5 mM, diluted with physiological saline water immediately before administration (PEPA (1.2 pmol/g), M-1 (12 pmol/g), K-2 (12 pmol/g), M-3 (60 pmol/g), and M-2 (240 pmol/g)), and administered by the parenteral route. In the electrophysiological experiment, PEPA and K-2 were dissolved in 100% DMSO so as to have a concentration of 150 mM, diluted with ACSF as a reflux liquid immediately before the experiment so as to have a concentration of 150 μM and then used. […]
A 7- to 8-week-old male SD rat was used. […] The section was left to stand still in ACSF at room temperature for 60 minutes, and then the AMPA current was measured by a whole-cell recording method. 100 μM of picrotoxin and 100 μM of DL-APV were administered under the condition that the ACSF was refluxed at a rate of 3 ml/min, and then only the AMPA current was isolated and measured.
The recording electrode was placed on a pyramidal cell in CA1, and the exciting electrode was placed on the Schaffer fiber separated away from the recording cell by 100 to 200 μm. […] The AMPA current in the ground state was recorded for 5 minutes, reflux was thereafter performed using ACSF added with PEPA or K-2 for 15 minutes, and then the AMPA current was recorded in the reflux liquid not containing PEPA or K-2 for 30 minutes. […]

α2A-Adrenergic, sequence (P08913 whole entry): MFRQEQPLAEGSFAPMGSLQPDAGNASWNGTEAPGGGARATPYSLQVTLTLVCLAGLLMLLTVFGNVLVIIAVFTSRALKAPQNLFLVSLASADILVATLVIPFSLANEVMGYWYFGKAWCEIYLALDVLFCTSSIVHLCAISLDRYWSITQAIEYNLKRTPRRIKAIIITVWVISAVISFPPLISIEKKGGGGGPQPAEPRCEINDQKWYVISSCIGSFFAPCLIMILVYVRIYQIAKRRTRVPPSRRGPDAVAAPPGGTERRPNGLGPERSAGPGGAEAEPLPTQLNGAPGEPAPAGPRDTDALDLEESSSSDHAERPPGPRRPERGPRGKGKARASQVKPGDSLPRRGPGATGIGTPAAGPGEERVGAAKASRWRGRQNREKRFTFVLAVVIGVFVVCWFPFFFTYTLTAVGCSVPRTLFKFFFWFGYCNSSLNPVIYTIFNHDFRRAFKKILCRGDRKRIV

CN(CCSc1cc(F)c(OCC(N)=O)c(F)c1)S(=O)(=O)c1ccccc1 [K-2, {4-[2-(benzenesulfonyl-methyl-amino)-ethylsulfanil]-2,6-difluoro-phenoxy}-acetamide]
inhibition at 0.1 µM (α2A-Adrenergic): 8.77%
inhibition at 0.1 µM (CRF1): 1.37%
Inhibition (%) (Glutamate (Kainate)): 1.68%
Inhibition (%) (K Channel KATP): 5.71%
Inhibition (%) (K Channel SKCa): 0.00%
inhibition at 0.1 µM (Opiate μ): 8.78%
ratio of AMPA current to reference value (AMPA receptor): 1.7±0.22
